Experimental findings from EP1101492A1, “NOVEL REMEDIES FOR ALLERGIC DISEASES” (FUJI YAKUHIN KOGYO KABUSHIKI KAISHA, priority 1998, dated 2000) are described below.

For experiment [1], the system named is mouse experimental atopic dermatitis models. Description: Auricle edema in experimental atopic dermatitis model (anti-DNP IgE sensitization, DNFB elicitation). Type of experiment: in vivo, Balb/c mice. To be noted: 60 µg/ear/dose in ethanol painted on auricles twice a day, 1 hour pre-elicitation, 6 hours, 1 to 6 days post-elicitation; for % Inhibition vLPR: 7 or 8 days post-elicitation; for % Inhibition IPR: 1 hour post-elicitation; for % Inhibition LPR: 1 day post-elicitation. The protocol: Intravenous injection of an anti-2,4-dinitrophenol (DNP) antibody (anti-DNP Ab, monoclonal IgE Ab; its antibody titer was 1 : 512 to 1 : 1024 by a rat heterologous passive cutaneous anaphylaxis reaction using a Wister rat) into a tail vein of female Balb/c mice (7-week old, body weight: 17 to 20 g, purchased from JAPAN SLC, Inc.) at a dose of […] per animal raised passive sensitization. Twenty four hours post-sensitization, 0.1% 2,4-dinitrofluorobenzene (DNFB; Nacalai Tesque, Inc.) in ethanol was painted onto both sides of a pair of mouse auricles at a dose of 10µL per each side for elicitation.
Fresh unsensitized mice were painted with 0.1% DNFB in ethanol onto their ear in the same manner as aforementioned and served as a control group. Not only immediately prior to elicitation but also 1 hour, 5 hours, daily between Days 1 and 14, and on Day 16 post-elicitation, ear thickness was measured using a dial thickness gauge (Peacock Co.). Each degree of auricle edemas was calculated: Auricular Edema (µm)=(Ear Thickness Post-Elicitation, µm) - (Ear Thickness immediately prior to Elicitation, µm) [formula]
Balb/c mice were passively sensitized with anti-DNP IgE Ab in the same manner as in Example 1. Twenty four hours later, 0.1% DNFB in ethanol was painted onto both sides of a pair of mouse auricles at a dose of 10 µL per each side for elicitation.
Immediately prior to elicitation, 1 hour and on Day 1 post-elicitation, auricle thickness was measured in the same manner as in Example 1. Each therapeutic efficacy is recorded as a percent inhibition wherein the "auricle edema (untreated group)" is used as a control. Auricle Edema Inhibition (%) = [ 1 -(Auricle Edema (Treated Group))/(Auricle Edema (Untreated Group))] × 100 (%) [formula]
Immediately prior to elicitation, and on Day 7 post-elicitation, auricle thickness was similarly measured. Each therapeutic efficacy is recorded as a percent inhibition wherein the auricle edema in the untreated group is used as a control.
Immediately prior to elicitation, and on Day 7 post-elicitation, auricle thickness was similarly measured. Each therapeutic efficacy is recorded as a percent inhibition wherein the auricle edema (untreated group) is used as a control.
Immediately prior to elicitation, at 1 and 4 hours and on Days 1, 3 and 7 post-elicitation, auricle thickness was similarly measured. From each auricle edema (µm) based on the auricle thickness immediately prior to elicitation, especially a prophylactically therapeutic efficacy of the test compound was evaluated.
Immediately prior to elicitation, at 0.5, 1 and 4 hours and on Days 1, 3 and 7 post-elicitation, auricle thickness was similarly measured. Each amount of auricle edemas was calculated (average± standard deviation).

For experiment [2] the test system is unchanged. In words: Scratching behavior in experimental atopic dermatitis model. Type of experiment: in vivo, mice. To be noted: for % Inhibition (scratching behavior) / Scratching Behavior (Times) (Average± Deviation): 0.1% solution in ethanol, 10 µL per side painted 1 hour pre-elicitation; for % Inhibition (scratching behavior): counts for 15 to 30 and 30 to 45 min post-elicitation, vs solvent control; for Scratching Behavior (Times) (Average± Deviation): counts for the 15 to 30 min and 30 to 45 min post-elicitation durations, 3 animals per group, solvent control 209.0 ± 70.4.

Experiment [3] concerns allergic peritonitis. Description: Allergic peritonitis induced with ovalbumin (peritoneal exudate cells). Type of experiment: in vivo, Balb/c mice. To be noted: ovalbumin. The protocol: Twenty four hours after induction, mice were sacrificed under ether […] and each penitoneal cavity was lavaged twice or thrice with a washout medium (total volume: 5 mL, physiological saline containing 10 units/mL of heparin). Peritoneal exudate cells (PEC) were harvested in a siliconized glass tube. The retrieved washout medium was measured for its yield (mL) and the number of exudate cells therein by using Turk solution and counting on a haemocytometer and a total number of PEC was calculated. An aliquot thereof (an extent of approximately 20,000 cells of PEC) was taken. Specimens for staining were prepared using Cytospin 3 (CHANDON), and PEC was stained with Dif-Quick solution (International Reagents Corporation). After staining, PEC was subjected to fractional counts under a microscope with classification into eosinophils, neutrophils, lymphocytes/macrophages and basophils based on their form and stain nature (more than 500 PEC per specimen were randomly counted). […] After counting, intraperitoneal exudation inhibition rates were calculated by the following formula and expressed as the therapeutic efficacies: Inhibition Rate (%) =[1 -((PEC in Sensitized/Drug-Treated Mouse) - (PEC in Unsensitized/Saline-Treated Mouse))/((PEC in Sensitized/Saline-Treated Mouse) - (PEC in Unsensitized/Saline-Treated Mouse))]× 100 [formula]
A physiological saline solution containing ovalbumin (0.25 mg/mL) and an aluminum hydroxide gel (4 mg/mL) was administered subcutaneously to male Balb/c mice (7 weeks old, 20 to 23 g, purchased from JAPAN SLC, Inc.) twice at one week interval at a single dose of 0.4 mL for sensitization. On Day 14 after the initial sensitization, an antigen solution for induction (2.5 µg/mL) was administered intraperitoneally to each animal at a dose of 0.4 mL to raise allergic peritonitis. Compound No. 130 (30 mg/kg) or a negative control solvent, physiological saline (10 mL/kg), was administered intraperitoneally to each animal 5 minutes prior to induction, 3 and 6 hours post-induction.
Similarly to Example 24, the peritoneal cavities were lavaged to retrieve PEC. The drained liquids were measured for their yield and total PEC number therein. In the same manner as in Example 24, PEC was stained and subjected to fractional counting under a microscope based on their form. […] Similarly to Example 24, basophils and neutrophils were excluded from subjects to be examined. In the same manner as in Example 24, intraperitoneal exudation inhibition rates were calculated and expressed as the therapeutic efficacies.
In the same manner as in Example 25, male Balb/c mice were sensitized with ovalbumin and an aluminum hydroxide gel, and, on Day 14 after the initial sensitization, treated with an antigen solution to raise allergic peritonitis. Compound No. […]
Similarly to Example 24, the peritoneal cavities were lavaged to retrieve PEC 24 hours after induction. The drained liquids were measured for their yield and total PEC number therein.

Experiment [4] concerns guinea pig experimental bronchial asthma models. Description: Experimental bronchial asthma model (ovalbumin inhalation): airway resistance and asthmatic death.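 Also: female Std:Hartley guinea pigs sensitized by inhaling nebulized ovalbumin once daily for 8 consecutive days, 8 to 11 animals per group.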 To be noted: test compounds 15 mg/kg s.c. (Compound No. 114: 30 mg/kg), prednisolone 10 mg/kg orally.
Setting [5] is: 30 mg/kg s.c. 1 hour prior to induction and 3 hours post-induction, lavage 6 hours post-induction.
The mark [6] stands for this setting: 30 mg/kg s.c., lavage 24 hours post-induction.
Where [7] appears, read: 24 and 2 hours prior to elicitation, vs solvent control.

As to `CNC(=O)[C@H](CCCCN)NC(=O)[C@H](CC(C)C)C(CCCc1ccc(C(=O)OC)cc1)C(=O)NO.Cl` (single isomer, unassigned) [Compound No. 129, N-[4-(N-Hydroxyamino)-2(R)-isobutyl-3(R or S)-[3-(p-methoxycarbonylphenyl)propyl)succinyl]-L-lysine N-methylamide 1 hydrochloride], in experiment [1], the “% Inhibition vLPR” value amounted to 35%, the “% Inhibition IPR” value was determined as 28% and the “% Inhibition LPR” value worked out at 53%. For the same compound, in experiment [2], the “% Inhibition (scratching behavior)” value is 31.1% and the “Scratching Behavior (Times) (Average± Deviation)” value amounted to 144.0 ± 48.8 Times. Also, in experiment [3] (setting [5]), the “Leukocyte exudate inhibition rate (%) Eosinophils” value stood at 39.9%, the “Leukocyte exudate inhibition rate (%) Neutrophils” value was determined as 125.7% and the “Leukocyte exudate inhibition rate (%) Total PEC Number” value was 109.1%. Besides, in experiment [3] (setting [6]), the “Leukocyte exudate inhibition rate (%) (Macrophages)/(Lymphocytes)” value was 37.7%, the “Leukocyte exudate inhibition rate (%) Eosinophils” value is on record as 30.2% and the “Leukocyte exudate inhibition rate (%) Total PEC Number” value is 35.1%.

In the case of `CNC(=O)[C@H](Cc1ccc(N=C(N)N)cc1)NC(=O)[C@@H](CC(=O)NO)CC(C)C.O=S(=O)(O)O` [Compound No. 122, N-[4-(N-Hydroxyamino)-2(R)-isobutylsuccinyl]-L-4'-guanidophenylalanine-N-methylamide 1 sulfate], in experiment [1], the “% Inhibition vLPR” value amounted to 35%, the “% Inhibition IPR” value is reported as 31% and the “% Inhibition LPR” value is 22%. Moreover, in experiment [2], the “% Inhibition (scratching behavior)” value is recorded as 54.1% and the “Scratching Behavior (Times) (Average± Deviation)” value stood at 96.0 ± 32.6 Times. In experiment [3] (setting [5]), the “Leukocyte exudate inhibition rate (%) Neutrophils” value came out at 27.1% and the “Leukocyte exudate inhibition rate (%) Total PEC Number” value worked out at 38.6%.

For the compound `CC(C)C[C@@H](C(=O)N[C@@H](Cc1ccc(CN)cc1)C(=O)O)C(CCCc1ccccc1)C(=O)NO.Cl` (mixture of isomers) [Compound No. 114, N^a-[4-(N-Hydroxyamino)-2(R)-isobutyl-3(RS)-(3-phenylpropyl)succinyl]-L-4'-aminomethylphenylalanine · 1 hydrochloride], in experiment [1], the “% Inhibition vLPR” value is reported as 52%, the “% Inhibition IPR” value is given as 71% and the “% Inhibition LPR” value is listed as 62%. In addition, in experiment [2], the “% Inhibition (scratching behavior)” value came to 30.3% and the “Scratching Behavior (Times) (Average± Deviation)” value was 345.7 ± 47.1 Times. In addition, in experiment [3] (setting [6]), the “Leukocyte exudate inhibition rate (%) (Macrophages)/(Lymphocytes)” value is listed as 29.0%, the “Leukocyte exudate inhibition rate (%) Eosinophils” value amounted to 37.5% and the “Leukocyte exudate inhibition rate (%) Total PEC Number” value was 33.4%. The “% Survival” value in experiment [4] (asthmatic death within several minutes after elicitation, water for injection 54.5, 0.5% methyl cellulose 66.7) amounted to 70.0%. Further, in experiment [4] (setting [7]), the “% Amelioration in Airway Resistance, 1 Hour after Elicitation” value is recorded as 39.4%; the “% Amelioration in Airway Resistance, 6 Hours after Elicitation” value worked out at 69.4%; the “% Amelioration in Airway Resistance, Immediately after Elicitation” value amounted to 54.0%.

Regarding `COC(=O)[C@H](Cc1ccc(CN)cc1)NC(=O)[C@H](CC(C)C)[C@H](CCCc1ccccc1)C(=O)NO.Cl` [Compound No. 132, N-[4-(N-Hydroxyamino)-2(R)-isobutyl-3(S)-(3-phenylpropyl)succinyl]-L-4'-aminomethylphenylalanine methyl ester 1 hydrochloride], in experiment [1], the “% Inhibition vLPR” value is 46%, the “% Inhibition IPR” value is 20% and the “% Inhibition LPR” value is 39%. In experiment [2], the “% Inhibition (scratching behavior)” value worked out at 49.9% and the “Scratching Behavior (Times) (Average± Deviation)” value came to 104.7 ± 30.6 Times. Besides, in experiment [3] (setting [6]), the “Leukocyte exudate inhibition rate (%) (Macrophages)/(Lymphocytes)” value was found to be 34.0%, the “Leukocyte exudate inhibition rate (%) Eosinophils” value is given as 24.3% and the “Leukocyte exudate inhibition rate (%) Total PEC Number” value is 31.6%.

Regarding `CNC(=O)[C@H](Cc1ccc(N=C(N)N)cc1)NC(=O)C(CC(C)C)[C@H](CCCc1ccccc1)C(=O)NO.Cl` (single isomer, unassigned) [Compound No. 125, N -[4-(N-Hydroxyamino)-2(R or S)-isobutyl-3(S)-(3-phenyltrimethylene)succinyl]-L-4'-guanidophenylalanine-N-methylamide 1 hydrochloride], in experiment [1], the “% Inhibition vLPR” value is reported as 31%, the “% Inhibition IPR” value was 56% and the “% Inhibition LPR” value is recorded as 58%. Moreover, in experiment [2], the “% Inhibition (scratching behavior)” value was determined as 40.7% and the “Scratching Behavior (Times) (Average± Deviation)” value came to 124.0 ± 43.6 Times. Besides, the “inhibitory efficacy on scratching in the 20 to 40 min post-elicitation duration” value in experiment [2] (0.3% Compound No. 125 vs 0.1% tacrolimus painted on auricles) is “higher than that of tacrolimus”. In experiment [2] (0.3% ethanolic solution, 10 µL per side painted on auricles 5 minutes pre-elicitation, observed 2 hours), the “efficacy on mouse scratching behavior (FIG. 9)” value was “apparently inhibits mouse scratching behavior”. Further, in experiment [3] (setting [5]), the “Leukocyte exudate inhibition rate (%) Eosinophils” value came to 38.4%, the “Leukocyte exudate inhibition rate (%) Neutrophils” value came out at 41.4% and the “Leukocyte exudate inhibition rate (%) Total PEC Number” value is 40.9%. In experiment [3] (setting [6]), the “Leukocyte exudate inhibition rate (%) (Macrophages)/(Lymphocytes)” value came to 55.1%, the “Leukocyte exudate inhibition rate (%) Eosinophils” value worked out at 38.9% and the “Leukocyte exudate inhibition rate (%) Total PEC Number” value was found to be 49.6%.
